How the values were obtained:
PC3 prostate cancer = test: NCI 60-cell screen dose-response study, PC3; type: cell-based
Description: (§1) TIR-199 activity in inhibiting cancer cell growth was tested in a National Cancer Institute (“NCI”) 60-cell screen in triplicate (see FIGS. 3-14).
(§2) The NCI 60-cell screens were initially tested with 10 μM dose of TIR-199. […] Due to the initial results being so promising, a full dose-response study was performed in triplicate with the NCI cell lines.

[1] = tested on: NCI-H226 lung cancer line; test: NCI 60-cell screen dose-response study, NCI-H226; type: cell-based
Description: as §1, §2

[2] = tested on: multiple myeloma cell lines; test: Studies with multiple myeloma cell lines; type: cell-based
OVCAR-5 = test: NCI 60-cell screen dose-response study, OVCAR-5; type: cell-based; conditions: Homo sapiens, dose-response study in triplicate, most sensitive cell line
Description: as §1, §2

RXF 393 renal cancer = test: NCI 60-cell screen dose-response study, RXF 393; type: cell-based
Description: as §1, §2

cancerous cell lines = test: Confirmatory in vitro cell-based screens; conditions: confirmatory in-vitro experiments in various laboratories
HCC-2998 colon cancer = test: NCI 60-cell screen dose-response study, HCC-2998; type: cell-based
Description: as §1, §2

BT-549 breast cancer = test: NCI 60-cell screen dose-response study, BT-549; type: cell-based
Description: as §1, §2

TK-10 renal cancer = test: NCI 60-cell screen dose-response study, TK-10; type: cell-based
Description: as §1, §2

60 cancerous cell lines = test: NCI 60-cell screen; type: cell-based
Description: as §1, §2

CCCCCCCCCCCCNC(=O)N[C@H](C(=O)N[C@H]1/C=C/CCNC(=O)/C=C/[C@H](C)NC1=O)C(C)C [TIR-199]
sensitivity of cell line (PC3 prostate cancer): particularly sensitive
potency against cell line [1]: Particular potency
potency compared with bortezomib [2]: nearly as potent as the FDA approved proteasome inhibitor, bortezomib
IC50 (OVCAR-5): 10 nM
sensitivity of cell line (RXF 393 renal cancer): particularly sensitive
potency against cancerous cell lines (cancerous cell lines): low nanomolar potency
sensitivity of cell line (HCC-2998 colon cancer): particularly sensitive
sensitivity of cell line (BT-549 breast cancer): particularly sensitive
sensitivity of cell line (TK-10 renal cancer): particularly sensitive
growth suppression and/or apoptosis induction in dose response study (60 cancerous cell lines; 60 cancerous cell lines, varying log10 amounts (FIG. 3)): suppressed the growth and/or induced apoptosis in every cancerous cell line
suppression of cancer cell growth (60 cancerous cell lines; initial single dose, 10 μM): effectively suppressed cancer cell growth universally across the cell lines
effectiveness on kidney cancer activity (60 cancerous cell lines; kidney (renal) cancer lines): surprisingly potent
